Test results from patent US6489297B1, “Vasoactive intestinal peptide analogs” (Dabur Research Foundation, priority 2000, dated 2002).
Where a SMILES comes first, the peptide text is derived from it. [ ]: non-standard residue; d: D form. dPhe(4-Cl) = N[C@H](Cc1ccc(Cl)cc1)C(=O)O; Aib = CC(C)(N)C(=O)O

Legend:
Format in all cases: cell-based, human
Settings in all cases: 72 hours
[1] = tested on: A549(non small cell lung); experiment: MTT cytotoxicity assay, A549 cells
Experimental: (§1) The cytotoxic activity of synthesized peptides was tested on […] human tumor cell lines namely PA-1 (ovary), SW620 (colon) HuTu80 (duodenum), L132 (lung), U87MG (glioblastoma), KB (oral), MIAPaCa2(pancreas), A549(non small cell lung) and HT-29(colon). The tumor cells were collected at exponential growth phase and resuspended in medium (1.5×10^6 cells/ml in RPMI 1640 containing 10% FBS). 150 μl of medium was added to the wells of a 96-well tissue culture plate (Nunc, Denmark) followed by 30 μl of cell suspension. The plate was left in incubator (37° C., 5% CO2) overnight. 20 μl of the peptide (100 pM to 1 uM concentration) was added to marked wells of the 96-well plate. Each concentration was plated in triplicates. 20 μl of medium alone was added to control wells while wells without cells served as blanks. A total volume of 200 μl was ensured in each well and plate was left in incubator (37° C., 5% CO2). After 72 hours of incubation an MTT assay was performed and percentage cytotoxicity was calculated with respect to control cells. Following Tables show the maximum cytotoxicity achieved on various cell lines.

MIAPaCa2(pancreas) = experiment: MTT cytotoxicity assay, MIAPaCa2 cells
Experimental: as §1

HT-29(colon) = experiment: MTT cytotoxicity assay, HT-29 cells
Experimental: as §1

U87MG (glioblastoma) = experiment: MTT cytotoxicity assay, U87MG cells
Experimental: as §1

KB (oral) = experiment: MTT cytotoxicity assay, KB cells
Experimental: as §1

HuTu80 (duodenum) = experiment: MTT cytotoxicity assay, HuTu80 cells
Experimental: as §1

L132 (lung) = experiment: MTT cytotoxicity assay, L132 cells
Experimental: as §1

SW620 (colon) = experiment: MTT cytotoxicity assay, SW620 cells
Experimental: as §1

PA-1 (ovary) = experiment: MTT cytotoxicity assay, PA-1 cells
Experimental: as §1

CC[C@H](C)[C@H](NC(=O)[C@H](CO)NC(=O)[C@H](CC(N)=O)NC(=O)[C@H](CC(C)C)NC(=O)[C@H](Cc1ccc(O)cc1)NC(=O)[C@H](CCCCN)NC(=O)[C@H](CCCCN)NC(=O)[C@@H](NC(=O)[C@H](C)NC(=O)[C@H](CC(C)C)NC(=O)[C@H](CCC(N)=O)NC(=O)[C@H](CCCCN)NC(=O)[C@H](CCCNC(=N)N)NC(=O)[C@H](CC(C)C)NC(=O)[C@H](CCCNC(=N)N)NC(=O)[C@@H](NC(=O)[C@H](Cc1ccc(O)cc1)NC(=O)[C@H](CC(N)=O)NC(=O)[C@H](CC(=O)O)NC(=O)[C@@H](NC(=O)[C@@H](Cc1ccc(Cl)cc1)NC(=O)[C@@H](NC(=O)C(C)(C)NC(=O)[C@H](CC(=O)O)NC(=O)[C@H](CO)NC(=O)[C@@H](N)Cc1c[nH]cn1)C(C)C)[C@@H](C)O)[C@@H](C)O)C(C)C)C(=O)N[C@@H](CC(C)C)C(=O)N[C@@H](CC(N)=O)C(N)=O [SEQ ID NO: 2] (H-HSD[Aib]V[dPhe(4-Cl)]TDNYTRLRKQLAVKKYLNSILN-NH2)
Percentage cytotoxicity ([1]; A549, 100 pM): 16 ± 5.5% | Percentage cytotoxicity ([1]; A549, 1 nM): 19 ± 4.5% | Percentage cytotoxicity ([1]; A549, 10 nM): 21 ± 5.5% | Percentage cytotoxicity ([1]; A549, 100 nM): 41 ± 6.0% | Percentage cytotoxicity ([1]; A549, 1 μM): 45 ± 5.5% | Percentage cytotoxicity (MIAPaCa2(pancreas); MIAPaCa2, 100 pM): 20 ± 6.5% | Percentage cytotoxicity (MIAPaCa2(pancreas); MIAPaCa2, 1 nM): 31 ± 5.0% | Percentage cytotoxicity (MIAPaCa2(pancreas); MIAPaCa2, 10 nM): 35 ± 3.5% | Percentage cytotoxicity (MIAPaCa2(pancreas); MIAPaCa2, 100 nM): 32 ± 4.5% | Percentage cytotoxicity (MIAPaCa2(pancreas); MIAPaCa2, 1 μM): 36 ± 0.5% | Percentage cytotoxicity (HT-29(colon); HT29, 100 pM): 26 ± 5.5% | Percentage cytotoxicity (HT-29(colon); HT29, 1 nM): 25 ± 4.5% | Percentage cytotoxicity (HT-29(colon); HT29, 10 nM): 25 ± 4.5% | Percentage cytotoxicity (HT-29(colon); HT29, 100 nM): 30 ± 5.8% | Percentage cytotoxicity (HT-29(colon); HT29, 1 μM): 38 ± 5.5% | Percentage cytotoxicity (U87MG (glioblastoma); 100 pM): 10.5 ± 4.5% | Percentage cytotoxicity (U87MG (glioblastoma); 1 nM): 12 ± 7.6% | Percentage cytotoxicity (U87MG (glioblastoma); 10 nM): 28.9 ± 5.6% | Percentage cytotoxicity (U87MG (glioblastoma); 100 nM): 19.0 ± 7.0% | Percentage cytotoxicity (U87MG (glioblastoma); 1 μM): 14 ± 4.5% | Percentage cytotoxicity (KB (oral); 100 pM): 47 ± 8.5% | Percentage cytotoxicity (KB (oral); 1 nM): 42 ± 8.0% | Percentage cytotoxicity (KB (oral); 10 nM): 34 ± 6.0% | Percentage cytotoxicity (KB (oral); 100 nM): 37 ± 5.0% | Percentage cytotoxicity (KB (oral); 1 μM): 43 ± 0.5% | Percentage cytotoxicity (HuTu80 (duodenum); HuTu80, 100 pM): 10 ± 3.5% | Percentage cytotoxicity (HuTu80 (duodenum); HuTu80, 1 nM): 20 ± 5.5% | Percentage cytotoxicity (HuTu80 (duodenum); HuTu80, 10 nM): 18 ± 4.5% | Percentage cytotoxicity (HuTu80 (duodenum); HuTu80, 100 nM): 24 ± 5.6% | Percentage cytotoxicity (HuTu80 (duodenum); HuTu80, 1 μM): 39 ± 4.5% | Percentage cytotoxicity (L132 (lung); L132, 100 pM): 18 ± 2.3% | Percentage cytotoxicity (L132 (lung); L132, 1 nM): 28 ± 4.5% | Percentage cytotoxicity (L132 (lung); L132, 10 nM): 30.9 ± 7.0% | Percentage cytotoxicity (L132 (lung); L132, 100 nM): 18.9 ± 5.0% | Percentage cytotoxicity (L132 (lung); L132, 1 μM): 15.9 ± 7.5% | Percentage cytotoxicity (SW620 (colon); SW620, 100 pM): 16.9 ± 4.5% | Percentage cytotoxicity (SW620 (colon); SW620, 1 nM): 28 ± 6.6% | Percentage cytotoxicity (SW620 (colon); SW620, 10 nM): 30 ± 4.5% | Percentage cytotoxicity (SW620 (colon); SW620, 100 nM): 23 ± 3.8% | Percentage cytotoxicity (SW620 (colon); SW620, 1 μM): 18.5 ± 5.1% | Percentage cytotoxicity (PA-1 (ovary); PA1, 100 pM): 16 ± 3.3% | Percentage cytotoxicity (PA-1 (ovary); PA1, 1 nM): 30.0 ± 6.7% | Percentage cytotoxicity (PA-1 (ovary); PA1, 10 nM): 28.9 ± 5.5% | Percentage cytotoxicity (PA-1 (ovary); PA1, 100 nM): 18.9 ± 4.2% | Percentage cytotoxicity (PA-1 (ovary); PA1, 1 μM): 16.5 ± 3.4%
